Where a SMILES comes first, the peptide text is derived from it. [ ]: non-standard residue; d: D form. Hyp = O=C(O)[CH]1C[CH](O)CN1
Legend:
fever = test: Aerosol inhalation to treat fever; type: in vivo, human
Protocol: The same formulation as described in Example 14 above was administered to a subject who enrolled in the study having had got a fever (a body temperature over 38.5° C.) for 1 day. Other anti-fever medications were not used prior to treatment.
The subject was required to use the aerosol inhalation device in the morning and in the evening by pouring 3 mL of the formulation into an atomizer storage tank connected to an atomizer and a mask, which was worn over the mouth and nose.

[1] = tested on: allergic skin (redness, itching, swelling); test: Liquid spray to treat allergic dermatitis; type: in vivo, human
Protocol: Compound B (see Example 1 above) was dissolved in Water for Injection (WFI; prepared from a TC-RO-0.25/h-2 Water Treatment System, Yangzhou Tiancheng Water Treatment Devices & Engineering Co., Ltd., Yangzhou, China). The concentration was 0.3 mg/mL.
The enrolled subjects in the study had allergic skin. Prior to treatment, the patients presented symptoms including skin redness, itching and swelling. Subjects were required to use the liquid spray in the morning and the evening after facial cleansing.

SMILES: CC(N)C(=O)NC(CCCCN)C(=O)N1CCCC1C(=O)NC(CO)C(=O)NC(Cc1ccc(O)cc1)C(=O)N1CC(O)CC1C(=O)N1CC(O)CC1C(=O)NC(C(=O)NC(Cc1ccc(O)cc1)C(=O)NC(CCCCN)C(=O)O)C(C)O (stereo not drawn) [Compound B, Ala-Lys-Pro-Ser-Tyr-Hyp-Hyp-Thr-Tyr-Lys] (H-AKPSY[Hyp][Hyp]TYK-OH; configuration not given here)
- recurrence of fever symptoms (fever; 0.5 mg/mL aerosol inhalation, morning and evening): did not recur after 3 uses
- body temperature (fever; 0.5 mg/mL, 3 mL aerosol inhalation, subject with body temperature over 38.5° C.): within two hours, their body temperature had dropped to normal
- time to relief of itching ([1]; liquid spray 0.3 mg/mL in Water for Injection, first use, subjects with allergic skin): ≤ 8 min
- capillary congestion, facial redness and swelling ([1]; liquid spray 0.3 mg/mL, morning and evening, after 1 day of use): no longer red and swollen after 1 day of use
